Data set [1] relates to Caenorhabditis elegans. The data set is described as follows: Activation of unfolded protein response in Caenorhabditis elegans mitochondria at 5 uM. It counts as functional, organism-based.
Data set [2] deals with Caenorhabditis elegans. As to the kind of experiment: Induction of mitochondrial morphology change in Caenorhabditis elegans at 5 uM incubated for 24 hrs. It counts as functional, organism-based.
The test system of data set [3] is Caenorhabditis elegans. The data set is described as follows: Reduction in oxygen consumption rate in Caenorhabditis elegans at 5 uM incubated for 24 hrs. It counts as functional, organism-based.
Data set [4] concerns Caenorhabditis elegans. The data set is described as follows: Inhibition of mitochondrial electron transport chain in Caenorhabditis elegans assessed as increase in life span at 5 uM. It counts as functional, organism-based.
Data set [5] can be described thus: Toxicity in iv dosed mouse assessed as maximum tolerated dose. It counts as organism-based. To be noted: in vivo.
Data set [6] has as its system PANC-1. As to the kind of experiment: Cytotoxicity against human PANC-1 cells incubated for 3 days by trypan blue assay. It counts as functional, cell-based. To be noted: PANC-1, 72 h.
In data set [7] the test system is HepG2. The data set is described as follows: Cytotoxicity against human HepG2 cells incubated for 3 days by trypan blue assay. It counts as functional, cell-based. The following applies: HepG2, 72 h.

Activity calls are given as the source filed them. No cut-off for these calls is given here.

`C=CC/C=C\Cc1csc(C(C)(C)[C@H](C/C=C\C(=C)CCNC(=O)OC)OC(C)=O)n1`: the outcome in data set [1] and in data set [2] was inactive. For the same compound, the result in data set [3] and in data set [4] was Active. In addition, the MTD in data set [5] is 0.1 mg/kg.
As to `C=CC/C=C\Cc1csc(C(C)(C)[C@@H](O)C/C=C\C(=C)CCNC(=O)OC)n1`, the result in data set [1] and in data set [2] was inactive. The result in data set [3] and in data set [4] was Active.
As to `C=CC/C=C\Cc1csc(C(C)(C)[C@H](O)C/C=C\C(=C)CCNC(=O)OC)n1`, the outcome in data set [1] and in data set [2] was inactive. For the same compound, the result in data set [3] and in data set [4] was Active.
In the case of `C=CC/C=C\Cc1csc(C(C)(C)[C@H](O)C/C=C/C(=C)CCNC(=O)OC)n1`, the outcome in data set [1] and in data set [2] was inactive. Besides, the result in data set [3] and in data set [4] was Active. Besides, the results for the IC50 in data set [6] and in data set [7] were 0.112 µM and 0.115 µM, respectively.

One may read the MTD as the highest dose tested that stayed within the study's limit of toxicity. A word on the IC50: it is the concentration needed to halve the response being measured. Low readings indicate higher potency, high ones lower potency.

Source of the values: ChEMBL document CHEMBL6127090, “Further Probing the Properties of a Unique Sponge-derived Alkaloid Through the Isolation of a New (-)-(5E)-(8R)-(14Z)-Mycothiazole Analogue” (J Nat Prod, 2024).
